Read-outs that look alike come from different tables or passages of the source.
Experiment: Pharmacokinetics study after separate oral administration in rats (HPLC-MS of plasma)
Assay type: in vivo, Sprague-Dawley rats
Details: for AUC(0-t) / MRT last / Tmax / CL/F / Cmax / half-life: po; for Tmax: read-out: Tmax (converted); for CL/F: read-out: CLz/F; for Cmax: read-out: Cmax; for half-life: read-out: t1/2z
Procedure: A total of 15 SPF Sprague-Dawley rats (SD, male, 190–210 g) were provided by Sino-British Sippr/BK Lab Animal Company Ltd. (Shanghai, China). The rats were kept in standard conditions (22–26 °C; 40–60% relative humidity; 12 h light/dark cycle). Throughout the rearing period, the animals had access to food and water ad libitum. Animal experiments were conducted in accordance with the standard ethical guidelines of the Laboratory Animal Management Committee of Jiangsu Province (SYXK (SU) 2016-0011).
Following 1 week of adaptation, the rats were fasted for about 12 h before dosing, with free access to water. […] After administration of the first dose, blood samples were taken from the retro-orbital vein at 0, 5, 15, 30, 60, 90, 120, 180, 240, 360, 480, and 1,440 min and collected in heparinized tubes. The samples were centrifuged at 3,500 rpm for 10 min at 4 °C and the plasma was stored at −80 °C until analysis.
An Agilent 1,200 series HPLC system (Agilent Technologies, Waldbronn, Germany) equipped with a quaternary pump on-line degasser, auto-sampler and column oven, and an SL G1946D quadruple mass spectrometer (Agilent Technologies, Santa Clara, CA, USA) equipped with an electrospray ionization (ESI) source, were used for separation and detection. Data were acquired and analyzed using Agilent ChemStation Software Version A.01.00 (Agilent Technologies, Santa Clara, CA, USA).
The separation was carried out with an Amethyst C18-H column (150 × 4.6 mm, 5 μm, Sepax Technologies, Newark, DE, USA) with a guard column SB-C18 (10 × 4.6 mm, 5 μm, Phenomenex Technologies, Torrance, USA) at a constant temperature of 25 °C.
The mass spectra were acquired using ESI interfaced to a single quadrupole mass spectrometer. The ionization conditions were as follows: drying gas (N2) flow rate of 11 L/min, drying gas temperature of 350 °C, nebulizing gas (N2) pressure of 35 psi, capillary voltage of 3,500 V, quad temperature of 100 °C, and fragment voltage of 110 V. A series of m/z were monitored using a timed program according to the retention times and characteristic ions for the corresponding HPLC-MS peak obtained by scanning from m/z 100–1,000 in the standard sample.
Briefly, an aliquot of plasma sample (100 μL) was spiked with 5% formic acid (10 μL) in centrifuge tube. Subsequently, hydrochloric acid (2 mol/L, 10 μL) and IS solution (960.00 ng/mL, 20 μL) were added. Then ethyl acetate/n-butyl alcohol (1:1 v/v; 1,000 μL) was used to extract the components. The samples were then homogenized by vortex mixing and centrifuged for 10 min at 14,000 rpm. After centrifugation, 800 μL of supernatant was transferred to another centrifuge tube and the sample was evaporated to dryness. The residues were dissolved in 100 μL of methanol and centrifuged for 10 min at 12,000 rpm. 50 μL of the supernatant was transferred to the vial and an aliquot of 5 μL was injected into the HPLC-MS system for analysis.
DAS 2.0 (Chinese Pharmacological Association, Shanghai, China) was used to calculate the pharmacokinetic parameters using the non-compartment model, including the area under curve (AUC), mean residence time (MRT), half-life ( t1/2z), clearance rate (CL), maximum plasma concentration (Cmax), and time (Tmax). All results are expressed as mean ± standard deviation (SD). One way analysis of variance followed by […] was used for comparison of different groups using Graph pad prism 5 software. A p-value of <0.05 was considered statistically significant.

[1] = male, Sprague-Dawley, rat, plasma, 50 mg/kg, IQ group (oral IQ 50 mg/kg), rat plasma, labelled substance = analyte, mean of 5 rats
[2] = male, Sprague-Dawley, rat, plasma, 50 mg/kg, IQ group: oral IQ 50 mg/kg, rat plasma, mean ± SD, n = 5
[3] = male, Sprague-Dawley, rat, plasma, 50 mg/kg, QG group (oral QG 50 mg/kg), rat plasma, labelled substance = analyte, mean of 5 rats
[4] = male, Sprague-Dawley, rat, plasma, 50 mg/kg, QG group: oral QG 50 mg/kg, rat plasma, mean ± SD, n = 5
[5] = male, Sprague-Dawley, rat, plasma, 50 mg/kg, Qr group (oral Qr 50 mg/kg), rat plasma, labelled substance = analyte, mean of 5 rats
[6] = male, Sprague-Dawley, rat, plasma, 50 mg/kg, Qr group: oral Qr 50 mg/kg, rat plasma, mean ± SD, n = 5

Compound: O=C(O)[C@H]1O[C@@H](Oc2c(-c3ccc(O)c(O)c3)oc3cc(O)cc(O)c3c2=O)[C@H](O)[C@@H](O)[C@@H]1O [QG, Quercetin-3-O-β-D-glucuronide]
- AUC0−t (Qr group: oral Qr 50 mg/kg, rat plasma, mean ± SD, n = 5): 1,150.0 ± 454.2 mg/L*min
- Shape of mean plasma concentration-time profile (after oral administration of QG 50 mg/kg): clear double peak phenomenon
- concentration at 120 min (male, Sprague-Dawley, rat, plasma, oral, 50 mg/kg, IQ group (oral IQ 50 mg/kg), 120 min, individual rats NO. 1-5, read-out: Plasma concentrations): 872 ng/mL
- AUC(0-t) (male, Sprague-Dawley, rat, plasma, 50 mg/kg, IQ group (oral IQ 50 mg/kg), rat plasma, labelled substance = analyte, individual rats No1-No5, read-out: AUC(0-t) (converted)): 8820 ng·h/mL
- MRT last (male, Sprague-Dawley, rat, plasma, 50 mg/kg, IQ group (oral IQ 50 mg/kg), rat plasma, labelled substance = analyte, individual rats No1-No5, read-out: MRT(0-t) (converted)): 4.63 h
- Tmax (male, Sprague-Dawley, rat, plasma, 50 mg/kg, IQ group (oral IQ 50 mg/kg), rat plasma, labelled substance = analyte, individual rats No1-No5): 0.5 h
- AUC(0-t) (male, Sprague-Dawley, rat, plasma, 50 mg/kg, IQ group (oral IQ 50 mg/kg), rat plasma, labelled substance = analyte, mean of 5 rats, read-out: AUC(0-t) (converted)): 11200 ng·h/mL
- CL/F [1]: 70 mL/min/kg
- Cmax [1]: 3900 ng/mL
- MRT last (male, Sprague-Dawley, rat, plasma, 50 mg/kg, IQ group (oral IQ 50 mg/kg), rat plasma, labelled substance = analyte, mean of 5 rats, read-out: MRT(0-t) (converted)): 5.93 h
- Tmax [1]: 0.5 h
- half-life [1]: 8.73 h
- AUC(0-t) (male, Sprague-Dawley, rat, plasma, 50 mg/kg, IQ group: oral IQ 50 mg/kg, rat plasma, mean ± SD, n = 5, read-out: AUC0−t (converted)): 11200 ng·h/mL
- Cmax [2]: 3910 ± 1340 ng/mL
- MRT last (male, Sprague-Dawley, rat, plasma, 50 mg/kg, IQ group: oral IQ 50 mg/kg, rat plasma, mean ± SD, n = 5, read-out: MRT0−t (converted)): 5.93 h
- Tmax [2]: 0.5 h
- half-life [2]: 8.72 ± 3.17 h
- MRT last (male, Sprague-Dawley, rat, plasma, 50 mg/kg, QG group (oral QG 50 mg/kg), rat plasma, labelled substance = analyte, individual rats No1-No5, read-out: MRT(0-t) (converted)): 6.52 h
- half-life (male, Sprague-Dawley, rat, plasma, 50 mg/kg, QG group (oral QG 50 mg/kg), rat plasma, labelled substance = analyte, individual rats No1-No5): 4.98 h
- AUC(0-t) (male, Sprague-Dawley, rat, plasma, 50 mg/kg, QG group (oral QG 50 mg/kg), rat plasma, labelled substance = analyte, mean of 5 rats, read-out: AUC(0-t) (converted)): 16000 ng·h/mL
- CL/F [3]: 71 mL/min/kg
- Cmax [3]: 2040 ng/mL
- MRT last (male, Sprague-Dawley, rat, plasma, 50 mg/kg, QG group (oral QG 50 mg/kg), rat plasma, labelled substance = analyte, mean of 5 rats, read-out: MRT(0-t) (converted)): 7.3 h
- Tmax [3]: 3.7 h
- half-life [3]: 6.27 h
- AUC(0-t) (male, Sprague-Dawley, rat, plasma, 50 mg/kg, QG group: oral QG 50 mg/kg, rat plasma, mean ± SD, n = 5, read-out: AUC0−t (converted)): 16000 ng·h/mL
- Cmax [4]: 2040 ± 850 ng/mL
- MRT last (male, Sprague-Dawley, rat, plasma, 50 mg/kg, QG group: oral QG 50 mg/kg, rat plasma, mean ± SD, n = 5, read-out: MRT0−t (converted)): 7.3 h
- Tmax [4]: 3.7 h
- half-life [4]: 6.27 ± 1.59 h
- Tmax (male, Sprague-Dawley, rat, plasma, 50 mg/kg, Qr group (oral Qr 50 mg/kg), rat plasma, labelled substance = analyte, individual rats No1-No5): 0.5 h
- AUC(0-t) (male, Sprague-Dawley, rat, plasma, 50 mg/kg, Qr group (oral Qr 50 mg/kg), rat plasma, labelled substance = analyte, mean of 5 rats, read-out: AUC(0-t) (converted)): 19200 ng·h/mL
- CL/F [5]: 43 mL/min/kg
- Cmax [5]: 6460 ng/mL
- MRT last (male, Sprague-Dawley, rat, plasma, 50 mg/kg, Qr group (oral Qr 50 mg/kg), rat plasma, labelled substance = analyte, mean of 5 rats, read-out: MRT(0-t) (converted)): 5.27 h
- Tmax [5]: 0.7 h
- half-life [5]: 9.1 h
- AUC(0-t) (male, Sprague-Dawley, rat, plasma, 50 mg/kg, Qr group: oral Qr 50 mg/kg, rat plasma, mean ± SD, n = 5, read-out: AUC0−t (converted)): 25800 ng·h/mL
- Cmax [6]: 6460 ± 2940 ng/mL
- MRT last (male, Sprague-Dawley, rat, plasma, 50 mg/kg, Qr group: oral Qr 50 mg/kg, rat plasma, mean ± SD, n = 5, read-out: MRT0−t (converted)): 5.26 h
- Tmax [6]: 0.7 h
- half-life [6]: 9.1 ± 7.28 h

From PMC6440464 (PeerJ, 2019)
